Laboratory results as given in ChEMBL document CHEMBL1122100, “Pyridoquinoxaline N-oxides. 2. Synthesis and antibacterial activity of tricyclic lactams” (1982).
Values after ≈ are worked out from the molar mass of the structure shown.

Legend:
Type in all cases: functional
[1] = test system: Streptococcus pyogenes; assay: Tested in vitro for the minimum inhibitory concentration (MIC) against Strep. pyogenes
[2] = test system: Salmonella enterica; assay: Tested in vivo for the antibacterial activity against Salmonella choleraesuis after sc administration of 25 mg/kg in mice; details: route subcutaneous
[3] = test system: Salmonella enterica; assay: Tested in vivo for the antibacterial activity against Salmonella choleraesuis after oral administration of 25 mg/kg in mice
[4] = test system: Salmonella enterica; assay: Tested in vitro for the minimum inhibitory concentration (MIC) against Salmonella choleraesuis
[5] = test system: Pasteurella multocida; assay: Tested in vitro for the minimum inhibitory concentration (MIC) against Pasteurella multocida
[6] = test system: Escherichia coli; assay: Tested in vitro for the minimum inhibitory concentration (MIC) against Escherichia coli
[7] = test system: Salmonella enterica; assay: Tested in vivo for the antibacterial activity against Salmonella choleraesuis after sc administration in mice; details: read-out: PD50
[8] = test system: Escherichia coli; assay: Tested in vivo for the antibacterial activity against Escherichia coli after oral administration in mice; details: read-out: PD50
[9] = test system: Escherichia coli; assay: Tested in vivo for the antibacterial activity against Escherichia coli after sc administration in mice; details: read-out: PD50
[10] = test system: Pasteurella multocida; assay: Tested in vivo for the antibacterial activity against Pasteurella multocida after sc administration in mice; details: read-out: PD50
[11] = test system: Pasteurella multocida; assay: Tested in vivo for the antibacterial activity against Pasteurella multocida after oral administration in mice; details: read-out: PD50
[12] = test system: Salmonella enterica; assay: Tested in vivo for the antibacterial activity against Salmonella choleraesuis after oral administration in mice; details: read-out: PD50

| SMILES | MIC [1] [µg/mL] | Protection [2] [%] | Protection [3] [%] | MIC [4] [µg/mL] | MIC [5] [µg/mL] | MIC [6] [µg/mL] | ED50 [7] [mg/kg] | ED50 [8] [mg/kg] | ED50 [9] [mg/kg] | ED50 [10] [mg/kg] | ED50 [11] [mg/kg] | ED50 [12] [mg/kg] |
| --- | --- | --- | --- | --- | --- | --- | --- | --- | --- | --- | --- | --- |
| O=C1NCCc2c1[n+]([O-])c1ccccc1[n+]2[O-] | 1.56 (≈ 6.75 µM) | 80 | 0 | 1.56 (≈ 6.75 µM) | < 0.39 | 1.56 (≈ 6.75 µM) | – | – | – | – | – | – |
| COCCN1CCc2c([n+]([O-])c3ccccc3[n+]2[O-])C1=O | 0.78 (≈ 2.7 µM) | 90 | 60 | 3.12 (≈ 10.8 µM) | 3.12 (≈ 10.8 µM) | 1.56 (≈ 5.39 µM) | – | – | – | – | – | – |
| O=C1c2c([n+]([O-])c3ccccc3[n+]2[O-])CCN1C1CCCCC1 | 3.12 (≈ 9.96 µM) | 0 | 0 | 50 (≈ 160 µM) | 25 (≈ 79.8 µM) | 50 (≈ 160 µM) | – | – | – | – | – | – |
| CCN1CCc2c([n+]([O-])c3ccccc3[n+]2[O-])C1=O | 1.56 (≈ 6.02 µM) | 70 | 50 | 1.56 (≈ 6.02 µM) | 6.25 (≈ 24.1 µM) | 3.12 (≈ 12 µM) | – | – | – | – | – | – |
| CN1CCc2c([n+]([O-])c3ccccc3[n+]2[O-])C1=O | 1.56 (≈ 6.36 µM) | 100 | 100 | 1.56 (≈ 6.36 µM) | 1.56 (≈ 6.36 µM) | 0.78 (≈ 3.18 µM) | 2.96 | 8.53 | 6.39 | 3.8 | 4.7 | 5.1 |
| O=C1c2c([n+]([O-])c3ccccc3[n+]2[O-])CCN1CCN1CCCCC1 | < 0.39 | 30 | 0 | 1.56 (≈ 4.56 µM) | 25 (≈ 73 µM) | 3.12 (≈ 9.11 µM) | – | – | – | – | – | – |
| COC(=O)N/N=C/c1c[n+]([O-])c2ccccc2[n+]1[O-] [CARBADOX] | 0.19 (≈ 0.725 µM) | 100 | 100 | 0.19 (≈ 0.725 µM) | 0.78 (≈ 2.97 µM) | 0.39 (≈ 1.49 µM) | 5.44 | 5.3 | 6.44 | 4.05 | 6.14 | 4.47 |
| C=CCN1CCc2c([n+]([O-])c3ccccc3[n+]2[O-])C1=O | 0.78 (≈ 2.88 µM) | 30 | 0 | 1.56 (≈ 5.75 µM) | 6.25 (≈ 23 µM) | 3.12 (≈ 11.5 µM) | – | – | – | – | – | – |
| O=C1c2c([n+]([O-])c3ccccc3[n+]2[O-])CCN1CCO | 6.25 (≈ 22.7 µM) | 0 | 0 | 12.5 (≈ 45.4 µM) | 12.5 (≈ 45.4 µM) | 12.5 (≈ 45.4 µM) | – | – | – | – | – | – |
